# Data: the supplement of paper PMC10307832
# What was measured:
# Test in all cases: relative viability (nuclei count vs DMSO), 5 days (fraction); higher = more cells survive
# 201T = system: 201T
# Procedure, shortened: (§1)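 Relative viability equals treated-well nuclei counts divided by vehicle-well nuclei counts. Counts came from 4× images of lung cancer cell lines grown in 1536-well plates for 5 days after pin-tool dosing on the day after seeding. Dosing used one drug alone or a fixed anchor-drug dose plus five library-drug doses (not always all listed) in √10 steps, and values are medians of duplicate plates.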
# ChaGo-K-1 = system: ChaGo-K-1
# Procedure, shortened: as §1
# HCC-78 = system: HCC-78
# Procedure, shortened: as §1
# HCC-827 = system: HCC-827
# Procedure, shortened: as §1
# LCLC-103H = system: LCLC-103H
# Procedure, shortened: as §1
# LCLC-97TM1 = system: LCLC-97TM1
# Procedure, shortened: as §1
# LOU-NH91 = system: LOU-NH91
# Procedure, shortened: as §1
# NCI-H1437 = system: NCI-H1437
# Procedure, shortened: as §1
# NCI-H1755 = system: NCI-H1755
# Procedure, shortened: as §1
# NCI-H1792 = system: NCI-H1792
# Procedure, shortened: as §1
# NCI-H2023 = system: NCI-H2023
# Procedure, shortened: as §1
# NCI-H2085 = system: NCI-H2085
# Procedure, shortened: as §1
# NCI-H2126 = system: NCI-H2126
# Procedure, shortened: as §1
# NCI-H2170 = system: NCI-H2170
# Procedure, shortened: as §1
# NCI-H2342 = system: NCI-H2342
# Procedure, shortened: as §1
# NCI-H2405 = system: NCI-H2405
# Procedure, shortened: as §1
# NCI-H441 = system: NCI-H441
# Procedure, shortened: as §1
# NCI-H596 = system: NCI-H596
# Procedure, shortened: as §1
# NCI-H650 = system: NCI-H650
# Procedure, shortened: as §1
# RERF-LC-KJ = system: RERF-LC-KJ
# Procedure, shortened: as §1
# SK-MES-1 = system: SK-MES-1
# Procedure, shortened: as §1
structure (smiles),measurement,setting,value
COCC1(CO)C(=O)C2CCN1CC2 (stereo unspecified) [PRIMA-1MET] + Nc1nc2[nH]cc(CCc3ccc(C(=O)N[C@@H](CCC(=O)O)C(=O)O)cc3)c2c(=O)[nH]1 [Pemetrexed] (partner 0.2 µM),relative viability,201T; first compound 0.2 µM,0.302
same,relative viability,201T; first compound 0.6325 µM,0.339
same,relative viability,201T; first compound 2 µM,0.332
same,relative viability,201T; first compound 6.325 µM,0.346
same,relative viability,201T; first compound 20 µM,0.328
same,relative viability,ChaGo-K-1; first compound 0.2 µM,0.249
same,relative viability,ChaGo-K-1; first compound 0.6325 µM,0.261
same,relative viability,ChaGo-K-1; first compound 2 µM,0.26
same,relative viability,ChaGo-K-1; first compound 6.325 µM,0.247
same,relative viability,ChaGo-K-1; first compound 20 µM,0.263
same,relative viability,HCC-78; first compound 0.2 µM,0.916
same,relative viability,HCC-78; first compound 0.6325 µM,0.886
same,relative viability,HCC-78; first compound 2 µM,0.914
same,relative viability,HCC-78; first compound 6.325 µM,0.832
same,relative viability,HCC-78; first compound 20 µM,0.864
same,relative viability,HCC-827; first compound 0.2 µM,0.221
same,relative viability,HCC-827; first compound 0.6325 µM,0.144
same,relative viability,HCC-827; first compound 2 µM,0.239
same,relative viability,HCC-827; first compound 6.325 µM,0.554
same,relative viability,HCC-827; first compound 20 µM,0.275
same,relative viability,LCLC-103H; first compound 0.2 µM,0.45
same,relative viability,LCLC-103H; first compound 0.6325 µM,0.503
same,relative viability,LCLC-103H; first compound 2 µM,0.459
same,relative viability,LCLC-103H; first compound 6.325 µM,0.499
same,relative viability,LCLC-103H; first compound 20 µM,0.451
same,relative viability,LCLC-97TM1; first compound 0.2 µM,0.193
same,relative viability,LCLC-97TM1; first compound 0.6325 µM,0.198
same,relative viability,LCLC-97TM1; first compound 2 µM,0.182
same,relative viability,LCLC-97TM1; first compound 6.325 µM,0.197
same,relative viability,LCLC-97TM1; first compound 20 µM,0.21
same,relative viability,LOU-NH91; first compound 0.2 µM,0.356
same,relative viability,LOU-NH91; first compound 0.6325 µM,0.367
same,relative viability,LOU-NH91; first compound 2 µM,0.405
same,relative viability,LOU-NH91; first compound 6.325 µM,0.4
same,relative viability,LOU-NH91; first compound 20 µM,0.344
same,relative viability,NCI-H1437; first compound 0.2 µM,0.32
same,relative viability,NCI-H1437; first compound 0.6325 µM,0.284
same,relative viability,NCI-H1437; first compound 2 µM,0.308
same,relative viability,NCI-H1437; first compound 6.325 µM,0.298
same,relative viability,NCI-H1437; first compound 20 µM,0.283
same,relative viability,NCI-H1755; first compound 0.2 µM,0.465
same,relative viability,NCI-H1755; first compound 0.6325 µM,0.388
same,relative viability,NCI-H1755; first compound 2 µM,0.406
same,relative viability,NCI-H1755; first compound 6.325 µM,0.333
same,relative viability,NCI-H1755; first compound 20 µM,0.373
same,relative viability,NCI-H1792; first compound 0.2 µM,0.713
same,relative viability,NCI-H1792; first compound 6.325 µM,0.947
same,relative viability,NCI-H1792; first compound 20 µM,0.676
same,relative viability,NCI-H2023; first compound 0.2 µM,0.224
same,relative viability,NCI-H2023; first compound 0.6325 µM,0.23
same,relative viability,NCI-H2023; first compound 2 µM,0.28
same,relative viability,NCI-H2023; first compound 6.325 µM,0.237
same,relative viability,NCI-H2023; first compound 20 µM,0.147
same,relative viability,NCI-H2085; first compound 0.2 µM,0.936
same,relative viability,NCI-H2085; first compound 0.6325 µM,0.925
same,relative viability,NCI-H2085; first compound 2 µM,0.549
same,relative viability,NCI-H2085; first compound 6.325 µM,0.862
same,relative viability,NCI-H2085; first compound 20 µM,0.165
same,relative viability,NCI-H2126; first compound 0.2 µM,0.657
same,relative viability,NCI-H2126; first compound 0.6325 µM,0.614
same,relative viability,NCI-H2126; first compound 2 µM,0.609
same,relative viability,NCI-H2126; first compound 6.325 µM,0.699
same,relative viability,NCI-H2126; first compound 20 µM,0.67
same,relative viability,NCI-H2170; first compound 0.2 µM,0.271
same,relative viability,NCI-H2170; first compound 0.6325 µM,0.25
same,relative viability,NCI-H2170; first compound 2 µM,0.274
same,relative viability,NCI-H2170; first compound 6.325 µM,0.258
same,relative viability,NCI-H2170; first compound 20 µM,0.268
same,relative viability,NCI-H2342; first compound 0.2 µM,0.789
same,relative viability,NCI-H2342; first compound 0.6325 µM,0.852
same,relative viability,NCI-H2342; first compound 6.325 µM,0.691
same,relative viability,NCI-H2342; first compound 20 µM,0.753
same,relative viability,NCI-H2405; first compound 0.2 µM,1.01
same,relative viability,NCI-H2405; first compound 0.6325 µM,0.986
same,relative viability,NCI-H2405; first compound 6.325 µM,0.974
same,relative viability,NCI-H2405; first compound 20 µM,0.0844
same,relative viability,NCI-H441; first compound 0.2 µM,0.24
same,relative viability,NCI-H441; first compound 0.6325 µM,0.2
same,relative viability,NCI-H441; first compound 2 µM,0.271
same,relative viability,NCI-H441; first compound 6.325 µM,0.274
same,relative viability,NCI-H441; first compound 20 µM,0.204
same,relative viability,NCI-H596; first compound 0.2 µM,0.553
same,relative viability,NCI-H596; first compound 0.6325 µM,0.481
same,relative viability,NCI-H596; first compound 2 µM,0.531
same,relative viability,NCI-H596; first compound 6.325 µM,0.495
same,relative viability,NCI-H596; first compound 20 µM,0.176
same,relative viability,NCI-H650; first compound 0.2 µM,1.26
same,relative viability,NCI-H650; first compound 0.6325 µM,0.894
same,relative viability,NCI-H650; first compound 2 µM,0.884
same,relative viability,NCI-H650; first compound 6.325 µM,0.978
same,relative viability,NCI-H650; first compound 20 µM,0.263
same,relative viability,RERF-LC-KJ; first compound 0.2 µM,0.49
same,relative viability,RERF-LC-KJ; first compound 0.6325 µM,0.484
same,relative viability,RERF-LC-KJ; first compound 2 µM,0.472
same,relative viability,RERF-LC-KJ; first compound 6.325 µM,0.495
same,relative viability,RERF-LC-KJ; first compound 20 µM,0.472
same,relative viability,SK-MES-1; first compound 0.2 µM,1.08
same,relative viability,SK-MES-1; first compound 0.6325 µM,0.896
same,relative viability,SK-MES-1; first compound 2 µM,0.901
same,relative viability,SK-MES-1; first compound 6.325 µM,0.92
same,relative viability,SK-MES-1; first compound 20 µM,0.929
